Reference: US20060058383A1 (priority 2004, published 2006)

Experiments:
HL-60 cells = test: MTT assay, in vitro cytotoxic activity before and after storage of drug solutions; format: cell-based, human; conditions: pH 7.0, 72 h drug incubation
HL-60 leukemia cells = test: Drug combination index, median-effect analysis; format: cell-based, human; conditions: combination with rapamycin (100 ng/ml), 24 h; CI less than 1 = synergistic
Procedure: (§1) FIGS. 35A-35D show synergistic cytotoxic effect of rapamycin and glycolycin (3-BrOP) in human lymphoma and leukemia cells. In FIG. 35A, the human lymphoma Raji cells were treated with 3-BrOP (30 μM), rapamycin (100 ng/ml), or their combinations as indicated, and apoptosis was measured by flow cytometry analysis after the cells were double-stained with annexin-V and PI as described in the Examples. In case of drug combination, cells were first treated with rapamycin for 18 h before addition of 3-BrOP and incubated for an additional 24 h or 48 h. In FIG. 35B, there is concentration-dependent induction of loss of cell viability by 3-BrOP in the presence and absence of rapamycin (100 ng/ml, 24 h) in Raji cells. Cells were double-stained with annexin-V and PI followed by flow cytometry analysis, and viable cells were expressed as % of control. […] Cell viability was determined as described above.
(§2) The above observations prompted the present inventors to use a formal drug combination analysis to determine if rapamycin and 3-BrOP have a synergistic effect. […] Cells were treated with various concentrations of 3-BrOP in the presence of a fixed concentration of rapamycin (100 ng/ml) for 24 h, and the percentage of apoptotic cells was quantitated by flow cytometry analysis using annexin-V/PI double staining. […]

Raji cells [1] = test: Drug combination index, median-effect analysis; format: cell-based, human; conditions: combination with rapamycin (100 ng/ml), 24 h; CI less than 1 = synergistic
Procedure: as §1, §2

Raji cells [2] = test: Cell growth by direct cell counting (Coulter Z2); format: cell-based, human
Procedure: A different assay was then used to further confirm the synergy between rapamycin and 3-BrOP. Raji cells were treated with 30 μM 3-BrOP, 100 ng/ml rapamycin, or their combination, and the numbers of cells were directly counted for consecutive 3 days, using a Coulter Z2 Particle Count & Size Analyzer.
Cell growth inhibition was determined by direct counting of the cells after they were treated with rapamycin, 3-BrOP, or their combination. A Coulter Z2 Particle Count & Size Analyzer was used to determine cell counts at 24 h, 48 h, and 72 h after drug incubation. Apoptosis was measured by flow cytometric analysis of cells stained with annexin V-FITC and propidium iodide (PI). Cells were treated with the indicated compounds under various incubation conditions as described in the figure legends. The samples were collected, washed with cold PBS, and then suspended in annexin-V binding buffer. The cells were stained with annexin V-FITC for 15 min at room temperature, washed, and then stained with PI. The samples were analyzed using a FACSCalibur flow cytometer equipped with CELLQuestPro software (Becton-Dickinson, San Jose, Calif.).

Raji cells [3] = test: Cellular ATP pool by HPLC; format: cell-based, human
Procedure: HPLC analysis was then used to determine cellular ATP pool in an attempt to understand the biochemical basis of the synergistic activity of rapamycin and 3-BrOP. Raji cells were treated with various concentrations of 3-BrOP in the presence and absence of rapamycin (100 ng/ml) for 6 h, and cellular ATP and other nucleotide pools were measured by HPLC analysis as described in Examples herein.
Because this ATP depletion occurred before apoptosis became detectable, it seems that the enhancement of ATP depletion might be a biochemical mechanism by which rapamycin promote the cytotoxic effect of 3-BrOP. […]
After cells were treated with rapamycin and 3-BrOP under the desired conditions, cellular glucose uptake was measured by incubating the cells in glucose-free RPMI 1640 media with 0.2 μCi/ml of [^3H]-2-deoxyglucose (specific activity, 40 Ci/mmol) for 60 min. After the samples were washed three times with cold PBS, the radioactivity in the cell pellets was quantified by liquid scintillation counting. […] Intracellular nucleotides were extracted from the cells with 0.4 N of perchloric acid (PCA) for 10 min in ice-bath, neutralization with concentrated KOH to pH 7.0, and analyzed by HPLC analysis as described previously (Xu et al., 2005; Seymour et al., 1996). […] The relative cellular ATP levels were expressed as percent of the control cells.

[4] = test system: p70S6K, 4E-BP-1 and BAD phosphorylation in Raji cells; test: Phosphorylation of mTOR downstream targets and BAD, western blot; format: cell-based, human
Procedure: The phosphorylation of p70S6K and 4E-BP1, two target molecules of mTOR, was examined as indications of mTOR inhibition.
The effect of rapamycin on BAD phosphorylation in 3-BrOP-treated cells was examined.
Protein lysates were prepared from the control and drug-treated cells, and separated by electrophoresis on 10% SDS-PAGE. […] The antibodies were dilute at 1:1,000 unless indicated otherwise. The bound primary antibodies were detected using appropriate horseradish peroxidase-conjugated secondary antibodies, followed by detection with a SuperSignal enhanced chemiluminescence kit (Pierce, Rockford, Ill.). For sequential blotting, the membranes were stripped with a stripping buffer (Pierce, Rockford, Ill.) followed by re-blotting with proper antibodies.

cancer cells = test: In vitro anticancer activity versus other glycolytic inhibitors; format: cell-based
[5] = mouse, in vivo
[6] = Stability of neutral drug solution on storage

CCCOC(=O)C(=O)CBr [Glycolycin, propyl 3-bromo-2-oxopropionate]
% Cell Survival (HL-60 cells; 5 μM, fresh drug solution): 19.3 ± 5.7%
% Cell Survival (HL-60 cells; 10 μM, drug stored for 3 weeks at 4° C.): 3.0 ± 1.3%
% Cell Survival (HL-60 cells; 10 μM, fresh drug solution): 2.5 ± 0.8%
% Cell Survival (HL-60 cells; 30 μM, drug stored for 3 weeks at 4° C.): 2.9 ± 1.2%
% Cell Survival (HL-60 cells; 30 μM, fresh drug solution): 3.7 ± 0.6%
% Cell Survival (HL-60 cells; 100 μM, drug stored for 3 weeks at 4° C.): 2.5 ± 0.9%
% Cell Survival (HL-60 cells; 100 μM, fresh drug solution): 3.5 ± 1.7%
drug combination index (CI) (HL-60 leukemia cells): < 1.0
drug combination index (CI) (Raji cells [1]): < 1.0
decrease in cell numbers (Raji cells [2]; 30 μM alone, up to 72 h): ~35%
cell growth (Raji cells [2]; 30 μM in combination with 100 ng/ml rapamycin): almost complete inhibition of cell growth
cellular ATP pool (Raji cells [3]; 6-h treatment after pre-incubation with 100 ng/ml rapamycin for 18 h): significantly enhanced the depletion of cellular ATP
cellular ATP pool (Raji cells [3]; various concentrations, 6 h): concentration-dependent decrease
BAD phosphorylation at Ser112 ([4]; 20 μM, 6 hours): did not reduce
BAD phosphorylation at Ser112 ([4]; 40 μM in the presence of rapamycin (100 ng/ml)): complete abolished
BAD phosphorylation at Ser112 ([4]; 40 μM, 6 hours): substantial decrease
phosphorylation of P70 S6K at Thr389 and 4E-BP-1 at Ser65 ([4]; 40 μM, 6 hours): some inhibition
potency as measured by IC50 relative to currently available glycolytic inhibitors with a similar mechanism of action (cancer cells): 10-20 fold
toxicity in mice [5]: No obvious toxicity
toxicity in animals, such as mice ([5]; 5 mg/kg): no apparent toxicity
activity of solution after storage ([6]; kept at 4° C. for 3 weeks): remained stable
stability of solution at neutral pH ([6]; pH 7.0, kept at 4° C.): stable
